Patent publication US8871267B2, “Protein matrix materials, devices and methods of making and using thereof” (Gel-Del Technologies, Inc., priority 1998, dated 2014)

What was measured:
hepatocytes = assay: Biological activity of released hEGF in in-vitro cell culture; type: cell-based; conditions: subsequent studies using hepatocytes
xanthine oxidase = target: T1, xanthine oxidase (Bos taurus, UniProt P80457); assay: Enzyme activity of xanthine oxidase in the device piece (Sigma Enzymatic Assay of Superoxide Dismutase protocol); type: biochemical; conditions: 0.01 unit solution
T1 construct: purchased Sigma Chemical Company, St. Louis Mo
Method: A single cylinder piece, prepared as described above in Example 1, was added to a reaction chamber in a spectrophotometer containing xanthine, cytochrome C and other reactants according to previously described superoxide dismutase protocol (Sigma Quality Control Test Procedure EC 1.15.1.1 “Enzymatic Assay of Superoxide Dismutase”) enzyme activity of the enzyme xanthine oxidase in the piece was calculated at 0.0005 delta absorbance min (absorbance measured at 550 mm where no enzyme activity produces 0.00000 change in absorbance). In comparison to a 0.01 unit solution of xanthine oxidase, which produced 0.0250 delta absorbance/min, the activity of the xanthine oxidase in the piece equaled 1% of the control solution in a time period of only 3 minutes.

T1 sequence (P80457 2-1332 limits assumed): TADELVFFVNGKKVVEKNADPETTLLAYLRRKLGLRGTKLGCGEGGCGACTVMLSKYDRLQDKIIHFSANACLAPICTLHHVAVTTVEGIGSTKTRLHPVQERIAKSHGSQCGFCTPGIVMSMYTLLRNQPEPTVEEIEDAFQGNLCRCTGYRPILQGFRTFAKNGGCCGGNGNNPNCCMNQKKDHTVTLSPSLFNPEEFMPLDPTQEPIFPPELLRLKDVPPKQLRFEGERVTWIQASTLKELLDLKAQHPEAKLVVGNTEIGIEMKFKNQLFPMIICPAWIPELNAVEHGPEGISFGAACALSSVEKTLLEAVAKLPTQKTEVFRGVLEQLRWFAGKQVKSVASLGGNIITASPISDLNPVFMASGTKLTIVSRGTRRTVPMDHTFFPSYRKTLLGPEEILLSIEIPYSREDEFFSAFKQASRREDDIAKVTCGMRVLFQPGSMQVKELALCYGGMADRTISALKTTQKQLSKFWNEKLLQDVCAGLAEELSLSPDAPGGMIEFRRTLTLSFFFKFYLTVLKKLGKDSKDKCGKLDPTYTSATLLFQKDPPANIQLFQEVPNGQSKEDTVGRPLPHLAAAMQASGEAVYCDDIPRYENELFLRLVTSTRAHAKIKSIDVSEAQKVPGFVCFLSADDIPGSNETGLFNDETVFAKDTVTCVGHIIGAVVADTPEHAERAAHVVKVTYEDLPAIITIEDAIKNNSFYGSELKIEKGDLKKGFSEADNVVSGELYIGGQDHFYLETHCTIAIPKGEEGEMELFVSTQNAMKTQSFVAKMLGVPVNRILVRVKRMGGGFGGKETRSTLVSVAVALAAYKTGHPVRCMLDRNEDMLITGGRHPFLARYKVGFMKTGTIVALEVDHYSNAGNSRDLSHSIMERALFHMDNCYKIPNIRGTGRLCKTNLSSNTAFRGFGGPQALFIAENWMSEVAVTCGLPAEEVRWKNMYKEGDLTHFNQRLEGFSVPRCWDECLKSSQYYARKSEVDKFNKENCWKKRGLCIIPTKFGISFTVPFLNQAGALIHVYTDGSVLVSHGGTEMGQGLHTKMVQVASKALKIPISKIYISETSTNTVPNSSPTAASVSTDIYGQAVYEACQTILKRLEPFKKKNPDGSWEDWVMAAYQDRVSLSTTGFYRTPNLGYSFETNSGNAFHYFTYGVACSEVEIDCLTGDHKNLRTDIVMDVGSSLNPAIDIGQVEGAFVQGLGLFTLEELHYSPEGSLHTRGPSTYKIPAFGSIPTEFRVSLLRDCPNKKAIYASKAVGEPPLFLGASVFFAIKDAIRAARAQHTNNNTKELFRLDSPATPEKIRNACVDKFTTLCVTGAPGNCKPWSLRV

Row | rate produced by xanthine oxidase solution (xanthine oxidase) [delta absorbance/min] | Substance | biological activity of released hEGF (hepatocytes)
1 | – | hEGF: recombinant human epidermal growth factor (R&D System) (NSDSECPLSHDGYCLHDGVCMYIEALDKYACNCVVGYIGERCQYRDLKWWELR; not fully specified; Epidermal growth factor; UniProt P01133 971-1023, looked up) | has biological activity
2 | 0.0250 | xanthine oxidase | –
